Laboratory results from publication PMC9841531, “Indole Derivatives as New Structural Class of Potent and Antiproliferative Inhibitors of Monocarboxylate Transporter 1 (MCT1; SLC16A1)” (Journal of Medicinal Chemistry, 2022).

Test system: A-549 cells
Assay: PI/Annexin V-FITC apoptosis assay
Assay type: cell-based
Settings: 5 μM
Description: As compound 24 increased the sub-G1 cell cycle fraction of A-549 cells, we investigated its capability to induce apoptosis in a PI/Annexin V-FITC staining assay, as reported earlier.[44],[46]−[51] In short, cells that were stained with PI only were considered necrotic cells (Q1), while cells stained with both PI and Annexin V were late apoptotic (Q2), and cells stained with Annexin V only were early apoptotic (Q4). Cells negative on both PI and Annexin V were considered living cells (Q3).
A PI/Annexin V-FITC double staining method was used to carry out a flow cytometry-based apoptosis assay, as reported earlier.[44],[46]−[51] For this purpose, a PI/Annexin V-FITC apoptosis detection kit (BD Biosciences, Franklin Lakes, NJ) was used following the manufacturer’s instructions. A-549 cells were seeded onto 6-well plates with a density of 500,000 cells/well and incubated for 24 h at 37 °C under a 5% CO2-humidified atmosphere. Subsequently, the cells were exposed to compound 24 (5 μM) followed by a further incubation period of 24 h at 37 °C under a 5% CO2-humidified atmosphere. The cells were trypsinized, washed with PBS, and resuspended in 1x binding buffer (1,000,000 cells/mL). One hundred microliters of test solution containing 100,000 cells treated with a mixture of PI (5 μL) and Annexin V-FTIC (5 μL) was incubated in the dark for 10–15 min at room temperature. Four hundred microliters of binding buffer was added, and the cells were resuspended again just before the flow cytometry analysis by using flow cytometry.

COC(=O)/C(C#N)=C/c1cn(CC(=O)Nc2ccc(OC)cc2)c2ccccc12 [Compound 24, Methyl-2-cyano-3-(1-(2-((4-methoxyphenyl)amino)-2-oxoethyl)-1H-indol-3-yl) Acrylate]
factor of increase of total apoptotic cells vs untreated: 13 | Q1 necrotic cells (PI only) (24 h): 10.6% | Q2 late apoptotic cells (PI and Annexin V) (24 h): 5.08% | Q3 living cells (24 h): 82.7% | Q4 early apoptotic cells (Annexin V only) (24 h): 1.60% | percentage of total apoptotic cells (24 h, untreated 0.51%): 6.68%
